Data published in patent publication US7994209B2, “3-phenoxymethylpyrrolidine compounds” (Theravance, Inc., priority 2009, dated 2011).

Legend:
hSERT [1] = target: T1, hSERT (Homo sapiens, UniProt P31645); assay: hSERT neurotransmitter uptake assay (3H-5-HT), Assay 2; format: cell-based; parameters: expressed in transfected cells; host or cells: HEK-293; settings: serotonin reuptake inhibition, 3H-5-HT uptake, HEK-293 hSERT cells (values without asterisk); read-out: SERT pIC50 (converted)
hNET [2] = target: T2, hNET (Homo sapiens, UniProt P23975); assay: hNET neurotransmitter uptake assay (3H-NE), Assay 2; format: cell-based; parameters: expressed in transfected cells; host or cells: HEK-293; settings: norepinephrine reuptake inhibition, 3H-NE uptake, HEK-293 hNET cells (values without asterisk); read-out: NET pIC50 (converted)
hNET [3] = target: T2, hNET; assay: hNET membrane radioligand binding assay (3H-nisoxetine), Assay 1
hSERT [4] = target: T1, hSERT; assay: hSERT membrane radioligand binding assay (3H-citalopram), Assay 1; settings: SERT pKi, hSERT HEK-293 membranes, 1.0 nM 3H-citalopram; values given as lower bounds
Description: Membrane radioligand binding assays were used to measure inhibition of labeled ligand (^3H-citalopram or ^3H-nisoxetine or ^3H-WIN35428) binding to membranes prepared from cells expressing the respective human recombinant transporter (hSERT or hNET or hDAT) in order to determine the pKi values of test compounds at the transporters.
Recombinant human embryonic kidney (HEK-293) derived cell lines stably transfected with hSERT or hNET, respectively, were grown in DMEM medium supplemented with 10% dialyzed FBS (for hSERT) or FBS (for hNET), 100 μg/mL penicillin, 100 μg/mL streptomycin, 2 mM L-glutamine and 250 μg/mL of the aminoglycoside antibiotic G418, in a 5% CO2 humidified incubator at 37° C. When cultures reached 80% confluence, the cells were washed thoroughly in PBS (without Ca^2+ and Mg^2+) and lifted with 5 mM EDTA in PBS. Cells were pelleted by centrifugation, resuspended in lysis buffer (10 mM Tris-HCl, pH7.5 containing 1 mM EDTA), homogenized, pelleted by centrifugation, then resuspended in 50 mM Tris-HCl, pH 7.5 and 10% sucrose at 4° C. Protein concentration of the membrane suspension was determined using a Bio-Rad Bradford Protein Assay kit. Membranes were snap frozen and stored at −80° C.
Binding assays were performed in a 96-well assay plate in a total volume of 200 μl assay buffer (50 mM Tris-HCl, 120 mM NaCl, 5 mM KCl, pH 7.4) with 0.5, 1, and 3 μg membrane protein, for SERT, NET and DAT, respectively.
Stock solutions (10 mM in DMSO) of test compound were prepared and serial dilutions made using Dilution Buffer (50 mM Tris-HCl, 120 mM NaCl, 5 mM KCl, pH 7.4, 0.1% BSA, 400 μM ascorbic acid).
Following a 60 minute incubation at 22° C. (or a period sufficient to reach equilibrium), the membranes were harvested by rapid filtration over a 96-well UniFilter GF/B plate, pretreated with 0.3% polyethyleneimine, and washed 6 times with 300 μl wash buffer (50 mM Tris-HCl, 0.9% NaCl, pH 7.5 at 4° C.). Plates were dried overnight at room temperature, approximately 45 μl of MicroScint™-20 (Perkin Elmer) added and bound radioactivity quantitated via liquid scintillation spectroscopy. Inhibition curves and saturation isotherms were analyzed using GraphPad Prism Software package (GraphPad Software, Inc., San Diego, Calif.). IC50 values were generated from concentration response curves using the Sigmoidal Dose Response (variable slope) algorithm in Prism GraphPad.

T1 sequence (P31645 whole entry): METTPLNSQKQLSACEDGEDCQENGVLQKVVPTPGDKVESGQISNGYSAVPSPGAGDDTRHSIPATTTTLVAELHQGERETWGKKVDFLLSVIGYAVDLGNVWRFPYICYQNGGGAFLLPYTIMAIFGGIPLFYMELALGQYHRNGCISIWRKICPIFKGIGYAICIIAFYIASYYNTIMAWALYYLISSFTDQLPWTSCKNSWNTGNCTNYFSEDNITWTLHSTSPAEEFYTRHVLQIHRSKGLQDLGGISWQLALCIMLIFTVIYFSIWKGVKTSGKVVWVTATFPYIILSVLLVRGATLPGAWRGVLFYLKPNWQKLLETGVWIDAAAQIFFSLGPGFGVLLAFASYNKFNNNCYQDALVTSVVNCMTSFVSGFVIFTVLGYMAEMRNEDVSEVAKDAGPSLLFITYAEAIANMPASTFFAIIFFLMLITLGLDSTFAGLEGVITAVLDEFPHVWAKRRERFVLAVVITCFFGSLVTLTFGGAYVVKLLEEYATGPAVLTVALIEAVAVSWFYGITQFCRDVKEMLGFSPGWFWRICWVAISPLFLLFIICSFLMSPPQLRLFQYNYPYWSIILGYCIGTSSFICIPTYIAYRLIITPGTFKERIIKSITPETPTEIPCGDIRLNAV
T2 sequence (P23975 whole entry): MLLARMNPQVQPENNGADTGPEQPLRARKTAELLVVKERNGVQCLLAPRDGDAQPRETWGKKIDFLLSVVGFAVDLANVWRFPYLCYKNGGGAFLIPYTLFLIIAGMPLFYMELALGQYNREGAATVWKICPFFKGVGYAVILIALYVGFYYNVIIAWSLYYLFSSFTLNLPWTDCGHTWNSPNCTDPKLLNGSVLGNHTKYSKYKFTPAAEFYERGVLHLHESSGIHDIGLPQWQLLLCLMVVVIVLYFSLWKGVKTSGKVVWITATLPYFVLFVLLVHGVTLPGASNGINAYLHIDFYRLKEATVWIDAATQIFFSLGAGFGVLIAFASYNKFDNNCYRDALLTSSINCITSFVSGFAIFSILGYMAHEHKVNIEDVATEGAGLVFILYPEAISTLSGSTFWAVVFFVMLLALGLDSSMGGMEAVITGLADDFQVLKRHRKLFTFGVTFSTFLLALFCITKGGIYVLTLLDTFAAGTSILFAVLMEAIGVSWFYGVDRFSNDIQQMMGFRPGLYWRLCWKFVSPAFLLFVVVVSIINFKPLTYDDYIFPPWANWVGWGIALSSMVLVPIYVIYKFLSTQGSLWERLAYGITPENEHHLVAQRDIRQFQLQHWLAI

Row | IC50 (hSERT [1]) [nM] | IC50 (hNET [2]) [nM] | Ki (hNET [3]) [nM] | Ki (hSERT [4]) [nM] | SMILES
1 | ≤ 100 | ≤ 10 | ≤ 10 | ≤ 10 | CC(C)C[C@H](Oc1ccccc1F)[C@H]1CCNC1 [Example 10-1, (S)-3-[(S)-1-(2-Fluorophenoxy)-3-methylbutyl]pyrrolidine]
2 | ≤ 100 | ≤ 10 | ≤ 10 | ≤ 10 | CC(C)CC(Oc1ccccc1Cl)C1CCNC1 (centres unmarked) [Example 10-3, 3-[1-(2-Chlorophenoxy)-3-methylbutyl]pyrrolidine]
3 | ≤ 100 | ≤ 10 | ≤ 10 | ≤ 10 | COc1ccccc1O[C@@H](CC(C)C)[C@H]1CCNC1 [Example 10-4, (S)-3-[(S)-1-(2-Methoxyphenoxy)-3-methylbutyl]pyrrolidine]
4 | ≤ 100 | ≤ 10 | ≤ 10 | ≤ 10 | CC(C)C[C@H](Oc1cccc(F)c1)[C@H]1CCNC1 [Example 10-5, (S)-3-[(S)-1-(3-Fluorophenoxy)-3-methylbutyl]pyrrolidine]
5 | ≤ 100 | ≤ 100 | ≤ 100 | ≤ 10 | CC(C)CC(Oc1cccc(C(F)(F)F)c1)C1CCNC1 (centres unmarked) [Example 10-7, 3-[3-Methyl-1-(3-trifluoromethylphenoxy)butyl]pyrrolidine]
6 | ≤ 100 | ≤ 10 | ≤ 10 | ≤ 10 | CC(C)C[C@H](Oc1ccc(F)cc1)[C@H]1CCNC1 [Example 10-8, (S)-3-[(S)-1-(4-Fluorophenoxy)-3-methylbutyl]pyrrolidine]
7 | ≤ 100 | ≤ 10 | ≤ 10 | ≤ 10 | CC(C)CC(Oc1ccc(F)cc1)C1CCNC1 (centres unmarked) [Example 10-9, 3-[1-(4-Fluorophenoxy)-3-methylbutyl]pyrrolidine]
8 | ≤ 10 | ≤ 10 | ≤ 10 | ≤ 10 | CC(C)CC(Oc1ccc(Cl)cc1)C1CCNC1 (centres unmarked) [Example 10-10, 3-[1-(4-Chlorophenoxy)-3-methylbutyl]pyrrolidine]
9 | ≤ 10 | ≤ 10 | ≤ 10 | ≤ 10 | CC(C)C[C@@H](Oc1ccc(Cl)cc1)[C@H]1CCNC1 [Example 10-11, (S)-3-[(R)-1-(4-Chlorophenoxy)-3-methylbutyl]pyrrolidine]

The next lines start with the compound.

Row | SMILES | IC50 (hSERT [1]) [nM] | IC50 (hNET [2]) [nM] | Ki (hNET [3]) [nM] | Ki (hSERT [4]) [nM]
10 | Cc1ccc(O[C@@H](C(C)C)[C@H]2CCNC2)c(Cl)c1 [Example 6-24, (S)-3-[(S)-1-(2-Chloro-4-methylphenoxy)-2-methylpropyl]pyrrolidine] | ≤ 10 | ≤ 10 | ≤ 10 | ≤ 10
11 | CC(C)[C@H](Oc1c(F)cc(Cl)cc1Cl)[C@H]1CCNC1 [Example 6-30, (S)-3-[(S)-1-(2,4-Dichloro-6-fluorophenoxy)-2-methylpropyl]pyrrolidine] | ≤ 10 | ≤ 10 | ≤ 10 | ≤ 10
12 | CC(C)[C@H](Oc1c(F)ccc(Cl)c1Cl)[C@H]1CCNC1 [Example 6-34, (S)-3-[(S)-1-(2,3-Dichloro-6-fluorophenoxy)-2-methylpropyl]pyrrolidine] | ≤ 10 | ≤ 10 | ≤ 10 | ≤ 10
13 | CC(C)[C@H](Oc1c(Cl)ccc(Cl)c1Cl)[C@H]1CCNC1 [Example 6-35, (S)-3-[(S)-2-Methyl-1-(2,3,6-trichlorophenoxy)-propyl]-pyrrolidine] | ≤ 10 | ≤ 10 | ≤ 10 | ≤ 10
14 | CC(C)[C@H](Oc1c(F)ccc(F)c1Cl)[C@H]1CCNC1 [Example 6-36, (S)-3-[(S)-1-(2-Chloro-3,6-difluorophenoxy)-2-methylpropyl]pyrrolidine] | ≤ 100 | ≤ 10 | ≤ 10 | ≤ 10
15 | CC(C)[C@H](Oc1c(Cl)c(F)cc(F)c1Cl)[C@H]1CCNC1 [Example 6-38, (S)-3-[(S)-1-(2,6-Dichloro-3,5-difluorophenoxy)-2-methylpropyl]pyrrolidine] | ≤ 100 | ≤ 10 | ≤ 10 | ≤ 10
16 | Cc1c(Cl)cccc1O[C@@H](C(C)C)[C@H]1CCNC1 [Example 6-39, (S)-3-[(S)-1-(3-Chloro-2-methylphenoxy)-2-methylpropyl]pyrrolidine] | ≤ 10 | ≤ 10 | ≤ 10 | ≤ 10
17 | Cc1c(Cl)cccc1O[C@H](C(C)C)[C@H]1CCNC1 [Example 6-40, (S)-3-[(R)-1-(3-Chloro-2-methylphenoxy)-2-methylpropyl]pyrrolidine] | ≤ 10 | ≤ 10 | ≤ 10 | ≤ 10
18 | Cc1cccc(O[C@H](C(C)C)[C@H]2CCNC2)c1C [Example 6-43, (S)-3-[(R)-1-(2,3-Dimethylphenoxy)-2-methylpropyl]pyrrolidine] | ≤ 10 | ≤ 10 | ≤ 10 | ≤ 10
19 | Cc1cc(Cl)ccc1O[C@@H](C(C)C)[C@H]1CCNC1 [Example 6-45, (S)-3-[(S)-1-(4-Chloro-2-methylphenoxy)-2-methylpropyl]pyrrolidine] | ≤ 10 | ≤ 10 | ≤ 10 | ≤ 10
20 | COc1cc(Cl)ccc1O[C@@H](C(C)C)[C@H]1CCNC1 [Example 6-47, (S)-3-[(S)-1-(4-Chloro-2-methoxyphenoxy)-2-methylpropyl]pyrrolidine] | ≤ 10 | ≤ 10 | ≤ 10 | ≤ 10
21 | CC(C)C(Oc1ccc(Cl)cc1C(F)(F)F)C1CCNC1 (centres unmarked) [Example 6-50, 3-[1-(4-Chloro-2-trifluoromethylphenoxy)-2-methylpropyl]pyrrolidine] | ≤ 100 | ≤ 10 | ≤ 10 | ≤ 10
22 | CC(C)[C@H](Oc1ccc(Cl)c(F)c1)[C@H]1CCNC1 [Example 6-56, (S)-3-[(S)-1-(4-Chloro-3-fluorophenoxy)-2-methylpropyl]pyrrolidine] | ≤ 10 | ≤ 10 | ≤ 10 | ≤ 10
23 | CC(C)[C@H](Oc1ccc(Cl)c(Cl)c1)[C@H]1CCNC1 [Example 6-62, (S)-3-[(S)-1-(3,4-Dichlorophenoxy)-2-methylpropyl]pyrrolidine] | ≤ 10 | ≤ 10 | ≤ 10 | ≤ 10
24 | CC(C)[C@H](Oc1cc(Cl)cc(Cl)c1)[C@H]1CCNC1 [Example 6-66, (S)-3-[(S)-1-(3,5-Dichlorophenoxy)-2-methylpropyl]pyrrolidine] | ≤ 10 | ≤ 100 | ≤ 100 | ≤ 10
25 | CC(C)[C@@H](Oc1cc(Cl)cc(Cl)c1)[C@H]1CCNC1 [Example 6-68, (S)-3-[(R)-1-(3,5-Dichlorophenoxy)-2-methylpropyl]pyrrolidine] | ≤ 10 | ≤ 10 | ≤ 10 | ≤ 10
26 | Cc1cc(O[C@@H](C(C)C)[C@H]2CCNC2)ccc1Cl [Example 6-70, (S)-3-[(S)-1-(4-Chloro-3-methylphenoxy)-2-methylpropyl]pyrrolidine] | ≤ 10 | ≤ 10 | ≤ 10 | ≤ 10
27 | CC(C)C(Oc1ccc(Cl)cc1)C1CCNC1 (centres unmarked) [Example 6-74, 3-[1-(4-Chlorophenoxy)-2-methylpropyl]pyrrolidine] | ≤ 10 | ≤ 10 | ≤ 10 | ≤ 10
28 | CC(C)[C@@H](Oc1ccc(Cl)cc1)[C@@H]1CCNC1 [Example 6-75, (R)-3-[(R)-1-(4-Chlorophenoxy)-2-methylpropyl]pyrrolidine] | ≤ 10 | ≤ 100 | ≤ 100 | ≤ 10
29 | CCCC[C@@H](Oc1cc(F)c(F)cc1F)[C@H]1CCNC1 [Example 7, (S)-3-[(R)-1-(2,4,5-Trifluorophenoxy)pentyl]pyrrolidine] | ≤ 100 | ≤ 10 | ≤ 10 | ≤ 10
30 | CCCC[C@@H](Oc1ccccc1Cl)[C@H]1CCNC1 [Example 8-1, (S)-3-[(R)-1-(2-Chlorophenoxy)pentyl]pyrrolidine] | ≤ 100 | ≤ 10 | ≤ 10 | ≤ 10
31 | CCCC[C@@H](Oc1ccccc1C(F)(F)F)[C@H]1CCNC1 [Example 8-2, (S)-3-[(R)-1-(2-Trifluoromethylphenoxy)pentyl]pyrrolidine] | ≤ 100 | ≤ 100 | ≤ 10 | ≤ 10
32 | CCCC[C@@H](Oc1ccc(F)cc1)[C@H]1CCNC1 [Example 8-3, (S)-3-[(R)-1-(4-Fluorophenoxy)pentyl]pyrrolidine] | ≤ 100 | ≤ 100 | ≤ 10 | ≤ 10
33 | CCCC[C@@H](Oc1ccc(Cl)cc1)[C@H]1CCNC1 [Example 8-4, (S)-3-[(R)-1-(4-Chlorophenoxy)pentyl]pyrrolidine] | ≤ 10 | ≤ 10 | ≤ 10 | ≤ 10
34 | CCCC[C@@H](Oc1c(Cl)cccc1Cl)[C@H]1CCNC1 [Example 8-12, (S)-3-[(R)-1-(2,6-Dichlorophenoxy)pentyl]pyrrolidine] | ≤ 100 | ≤ 10 | ≤ 10 | ≤ 10
35 | CCCC[C@@H](Oc1cc(Cl)cc(Cl)c1)[C@H]1CCNC1 [Example 8-13, (S)-3-[(R)-1-(3,5-Dichlorophenoxy)pentyl]pyrrolidine] | ≤ 10 | ≤ 10 | ≤ 10 | ≤ 10
